Data reported in US20170057948A1, “INDOLE-LIKE TRK RECEPTOR ANTAGONISTS” (Tallinn University of Technology, priority 2015, published 2017).
Values after ≈ are worked out from the molar mass of the structure shown.

Legend:
Syk [1] = biological target: T1, Syk (Homo sapiens, UniProt P43405); conditions: 1 μM concentration; cited from earlier work
TrkA [2] = biological target: T2, TrkA (Homo sapiens, UniProt P04629); conditions: 1 μM concentration; cited from earlier work
T2 construct: purchased ProQinase, Germany (custom-ordered assay service)
T2 sequence (P04629 33-796): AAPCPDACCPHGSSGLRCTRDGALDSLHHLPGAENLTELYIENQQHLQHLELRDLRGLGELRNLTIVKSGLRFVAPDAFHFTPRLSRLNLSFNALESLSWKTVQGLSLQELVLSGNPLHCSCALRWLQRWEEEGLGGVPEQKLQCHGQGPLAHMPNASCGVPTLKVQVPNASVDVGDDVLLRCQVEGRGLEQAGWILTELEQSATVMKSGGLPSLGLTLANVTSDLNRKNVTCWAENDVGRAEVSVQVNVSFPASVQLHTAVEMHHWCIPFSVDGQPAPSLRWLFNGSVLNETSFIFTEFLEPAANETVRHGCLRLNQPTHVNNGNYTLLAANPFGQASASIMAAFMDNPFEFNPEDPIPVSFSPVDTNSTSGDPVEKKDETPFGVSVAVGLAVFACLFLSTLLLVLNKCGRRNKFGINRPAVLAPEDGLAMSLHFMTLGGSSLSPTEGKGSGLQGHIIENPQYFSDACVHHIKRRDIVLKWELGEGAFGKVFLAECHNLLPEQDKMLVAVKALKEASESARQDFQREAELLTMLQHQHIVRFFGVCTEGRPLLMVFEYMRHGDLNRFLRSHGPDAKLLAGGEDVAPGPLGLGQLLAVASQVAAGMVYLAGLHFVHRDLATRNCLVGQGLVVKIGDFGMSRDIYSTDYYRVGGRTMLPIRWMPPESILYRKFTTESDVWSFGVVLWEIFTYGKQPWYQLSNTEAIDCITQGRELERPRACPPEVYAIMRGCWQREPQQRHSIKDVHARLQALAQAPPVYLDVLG

Syk [3] = biological target: T1, Syk; conditions: cited from earlier work
TrkA [4] = biological target: T2, TrkA; assay: In vitro kinase profiling (48 kinases), TrkA; type: biochemical; conditions: 1 μM concentration; read-out: residual activity of TrkA
Experimental: According to the results, at concentration of 100 nM all compounds were relatively TrkA specific inhibiting only up to 3 off-target kinases, while reducing the activity of TrkA by at least 82% at 100 nM concentration and 94% at 1 μM concentration. At 100 nM, 2a25 was able to inhibit only TrkA. […] Kinases that were inhibited by most of the compounds at 1 concentration included Aurora-B, CAMKK2, CHK2, IRAK4, LCK, and MAP3K11.
(§1) The biochemical kinase assays were custom ordered from ProQinase, Germany.

[5] = tested on: cortical neurons, PC-12 cells or dividing MG87/TRKB/luc/Elk1 cells; assay: Toxic or adverse effect on cells (summary statement); type: cell-based
Text: The Trk antagonists of the invention share a similar indole-like basic structure; however, substituent substitution yielded compounds with markedly high activity and specificity for the Trk family.

Syk [6] = biological target: T1, Syk; assay: In vitro kinase profiling (48 kinases), Syk; type: biochemical; design: Aurora-B, CaMMK2, Chk2, Irak4, Lck, Map3K11, Syn aa1-635, TrkA, TrkB, and TrkC; purchased ProQinase, Germany (custom-ordered assay service); conditions: for inhibition of Syk: own experiments
Text: as §1

TrkA [7] = biological target: T3, TrkA (Rattus norvegicus, UniProt P35739); assay: PC-12/luc/Elk1 luciferase reporter cellular assay (NGF-induced); type: cell-based; conditions: 50 ng/ml NGF, 18 h treatment
T3 construct: endogenous in cells; host or cells: PC-12 and PC-12/luc/Elk1 (rat pheochromocytoma)
T3 sequence (P35739 33-799): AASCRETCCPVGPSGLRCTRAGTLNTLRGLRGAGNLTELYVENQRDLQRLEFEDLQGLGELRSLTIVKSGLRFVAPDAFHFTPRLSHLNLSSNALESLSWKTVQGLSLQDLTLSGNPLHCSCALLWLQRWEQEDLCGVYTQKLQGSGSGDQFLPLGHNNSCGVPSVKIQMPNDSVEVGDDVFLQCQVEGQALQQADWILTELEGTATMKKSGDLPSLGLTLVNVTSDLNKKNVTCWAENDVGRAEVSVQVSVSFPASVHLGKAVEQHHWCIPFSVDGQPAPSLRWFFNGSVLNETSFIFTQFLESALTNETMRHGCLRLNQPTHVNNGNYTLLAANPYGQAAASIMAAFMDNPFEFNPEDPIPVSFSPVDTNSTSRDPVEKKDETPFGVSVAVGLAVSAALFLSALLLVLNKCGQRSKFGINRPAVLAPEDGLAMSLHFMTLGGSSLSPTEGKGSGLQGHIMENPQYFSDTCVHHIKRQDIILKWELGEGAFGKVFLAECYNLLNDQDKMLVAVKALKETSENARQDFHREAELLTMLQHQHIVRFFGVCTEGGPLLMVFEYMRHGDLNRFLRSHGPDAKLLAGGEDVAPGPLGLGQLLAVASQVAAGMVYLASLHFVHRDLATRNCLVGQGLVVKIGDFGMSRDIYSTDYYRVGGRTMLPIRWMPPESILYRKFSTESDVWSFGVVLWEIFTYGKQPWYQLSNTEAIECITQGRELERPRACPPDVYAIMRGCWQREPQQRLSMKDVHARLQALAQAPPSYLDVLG
Text: A stably transfected cell line was generated in order to assess the capability of the compounds to inhibit the activation of TrkA receptor in the natural (neural) cellular context. Once the endogenic TrkA of the PC-12/luc/Elk1 cell line becomes activated, the downstream events result in phosphorylation of Elk1, the GAL4-dbd fused to Elk1 binds then to GAL4 UAS and activates the transcription of luciferase (FIG. 3). To address the suitability of the generated system for screening application, the Z′-factor was determined (see also Examples section). […] Z′-factor value above 0.5 is considered an indication of a high quality assay. The timeframe of 18 hours with the highest Z′-factor value was chosen for subsequent experiments.
PC-12 (rat adrenal pheochromocytoma cell line) cells were transfected using LIPOD293 DNA In Vitro Transfection Reagent (SignaGen) with 1 μg of pFA2-Elk1 plasmid and 4 μg of pFR-LUC plasmid (PathDetect Elk1 trans-Reporting System; Agilent Technologies). pFA2-Elk1 plasmid codes for the fusion protein consisting of GAL4-dbd (DNA-binding domain) followed by Elk1 transcription factor and contains Geneticin G418 resistance gene neomycin. pFR-LUC plasmid codes for GAL4 upstream activation sequence (UAS) followed by luciferase reporter gene. A puromycin resistance gene was introduced to the pFR-LUC plasmid using Bst1107I and NdeI restrictases from pGL4.22[luc2CP/Puro] (Promega). The selection of transfected cells was initiated two days after the transfection with addition of 300 μg/ml of G418 (Sigma) and 0.75 μg/ml of puromycin (Sigma-Aldrich) and continued for about one and a half months until distinct cell colonies could be picked, plated, and tested for responsiveness to NGF. Generated cell line, called hereafter PC-12/luc/Elk1, was maintained in Dulbecco's Modified Eagle's Medium (DMEM; PAA) containing 6% fetal bovine serum (FBS; PAA), 6% horse serum (HS; PAA), 1% penicillin/streptomycin (PS; Gibco), 300 μg/ml of Geneticin G418, and 0.75 μg/ml of puromycin. […] PC-12 cells were maintained in DMEM containing 6% FBS, 6% HS, and 1% PS.
PC-12/luc/Elk1 cells were plated one day before the assay on 96 well plates in 25,000 cells per well. […] The plate was subjected to 10 minutes of shaking and, thereafter, analyzed using TECAN plate reader. […]
The IC50's of the compounds were determined using cellular and biochemical assays. In the cellular assays, using PC-12/luc/Elk1 and MG87/TrkB/luc/Elk1 cells, the compounds were assessed in gradual dilutions of the compounds in triplets together with NGF or BDNF (Peprotech), respectively. TrkA inhibition was determined using same methodology as for measuring the Z′-factor with 18 h treatment time. […]

Akt and Erk1/2 = assay: Western blot of phosphorylated downstream kinases; type: cell-based; conditions: compared to NGF or BDNF alone
Experimental: (§2) The compounds were tested on PC-12 and MG87/TrkB/luc/Elk1 cells that express TrkA and TrkB, respectively. The cells were treated concurrently with NGF or BDNF and the compounds at three different concentrations. The levels of phosphorylated kinases were assessed using respective antibodies and further quantification of western blot signals. […] Additionally, in these two distinct cellular systems the activity of the Trk proteins may be incomparable due to their different concentration or interaction partners that can affect their behavior. For this reason, most probably there is no big selectivity of these compounds for the Trk kinases which is expected, as the ATP-binding pockets of Trk proteins are highly similar.
(§3) The PC-12 and MG87/TrkB/luc/Elk1 cells were plated on 6-well plates one day prior to the assay. Cells were treated for 10 minutes with compounds and simultaneously with 50 ng/ml of NGF (PC-12 cells) or BDNF (MG87/TrkB/luc/Elk1 cells). 0.1% of DMSO was used to determine the base level, 0.1% of DMSO concurrently with 50 ng/ml of NGF or BDNF served as a negative control and 0.1% of DMSO concurrently with 5 nM of AZ-23 as a positive control. Thereafter, western blotting was performed as described previously. Antibodies used included: rabbit anti-TrkA (#06-574; 1:1000) from Millipore; rabbit anti phospho-TrkA (#9141; 1:1000), rabbit anti phospho-TrkA/TrkB (#4619; 1:1000), rabbit anti-TrkB (#4603; 1:1000) and rabbit anti phospho-Akt (#4058; 1:3000) from Cell Signaling; mouse anti phosphor-Erk1/2 (#sc-7383; 1:1000) from Santa Cruz and anti-tubulinβ clone E7 (1:1000) from Prof. Michael Klymkovsky.

TrkA [8] = biological target: T3, TrkA; assay: Western blot of phosphorylated TrkA in PC-12 cells; type: cell-based; conditions: concurrently with NGF, statistically significant reduction at 1 μM
Experimental: as §2, §3

TrkB = biological target: T4, TrkB (Rattus norvegicus, UniProt Q63604); assay: Western blot of phosphorylated TrkB in MG87/TrkB/luc/Elk1 cells; type: cell-based; conditions: concurrently with BDNF, statistically significant reduction at 1 μM
T4 construct: expressed in transfected cells; host or cells: MG87/TrkB/luc/Elk1
T4 sequence (Q63604 32-821): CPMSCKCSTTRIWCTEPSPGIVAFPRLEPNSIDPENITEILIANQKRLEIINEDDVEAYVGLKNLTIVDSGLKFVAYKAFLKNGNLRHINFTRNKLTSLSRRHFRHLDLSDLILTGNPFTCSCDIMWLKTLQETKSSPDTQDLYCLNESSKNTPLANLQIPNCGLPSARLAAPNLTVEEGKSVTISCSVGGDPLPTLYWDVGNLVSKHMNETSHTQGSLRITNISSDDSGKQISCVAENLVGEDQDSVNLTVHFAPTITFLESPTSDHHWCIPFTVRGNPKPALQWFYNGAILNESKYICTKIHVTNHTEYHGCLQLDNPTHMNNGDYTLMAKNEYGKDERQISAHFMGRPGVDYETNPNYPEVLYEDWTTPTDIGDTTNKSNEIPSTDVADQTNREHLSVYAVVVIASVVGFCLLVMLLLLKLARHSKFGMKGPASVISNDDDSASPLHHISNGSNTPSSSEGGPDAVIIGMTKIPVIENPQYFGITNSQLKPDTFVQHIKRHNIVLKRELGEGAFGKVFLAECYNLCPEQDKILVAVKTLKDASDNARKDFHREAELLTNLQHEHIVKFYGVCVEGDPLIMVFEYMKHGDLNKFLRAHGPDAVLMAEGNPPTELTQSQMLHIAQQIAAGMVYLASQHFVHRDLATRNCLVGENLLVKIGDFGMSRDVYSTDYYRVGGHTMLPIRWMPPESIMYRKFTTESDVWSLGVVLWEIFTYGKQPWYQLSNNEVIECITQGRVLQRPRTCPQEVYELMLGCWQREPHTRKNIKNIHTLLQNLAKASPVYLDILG
Experimental: as §2, §3

[9] = biological target: 48 kinases representing the human kinome; assay: In vitro kinase profiling, panel of 48 kinases (off-targets); type: biochemical; conditions: 100 nM
Text: as §1

MG87/TrkB/luc/Elk1 cells = assay: Cellular ATP content, CellTiter-Glo viability assay; type: cell-based; conditions: different concentrations, 24 h
Experimental: ATP was measured at least from 8 different wells per treatment condition.

In vivo toxicology study = conditions: C57/B16 mice
Aqueous solubility = type: physicochemical; conditions: room temperature
Rat cortical cells = assay: Viability of primary cortical neurons (neuron count); type: cell-based; conditions: 24 h, even at 1 μM concentration
Experimental: Neurons were grown in NEUROBASAL, a medium supplemented with B27 with phenol red on ploy-L-lysine-coated 35 mm glass bottomed dishes. Culture media and supplements were obtained from Invitrogen (Carlsbad, Calif.). For viability measurements neurons were first transfected with neuronal maker, pAAV-hSyn-DsRedExpress obtained from Addgene (Cambridge, Mass.) allowing better to assess the morphology of individual neurons. Briefly, the condition medium was replaced with 100 μL Opti-MEM 1 medium, containing 2% Lipofectamine 2000 and 1-2 μg of total DNA. Neurons were incubated for 3-4 hrs, after which fresh medium was added.

Cn1cc(/C=C2\C(=O)Nc3ccc(S(N)(=O)=O)cc32)c2ccccc21 [Compound 2a21]
residual activity of Syk (Gao et al.) (Syk [1]): 38% | residual activity of TrkA (Gao et al.) (TrkA [2]): 1% | reported effect on Syk activity (Syk [3]): Syk inhibitors | remaining activity at 1 µM (TrkA [4]): 2% | toxic or adverse effect on cells [5]: no toxic or adverse effect | inhibition of Syk (Syk [6]): failed to inhibit Syk at significant levels | remaining activity at 1 µM (Syk [6]; read-out: residual activity of Syk): 47% | IC50 (TrkA [7]): ≤ 100 nM

COc1ccc2c(c1)c(/C=C1\C(=O)Nc3ccc(S(N)(=O)=O)cc31)cn2C [Compound 2a22]
phosphorylation of downstream kinases Akt and Erk1/2 (Akt and Erk1/2): diminished | phosphorylation of TrkA (TrkA [8]): effectively inhibited | phosphorylation of TrkB (TrkB): effectively inhibited | toxic or adverse effect on cells [5]: no toxic or adverse effect

COc1ccc2[nH]cc(/C=C3\C(=O)Nc4ccc(S(N)(=O)=O)cc43)c2c1 [Compound 2a23, (Z)-3-((5-methoxy-1H-indol-3-yl)methylene)-2-oxindole-5-sulfonamide]
reported effect on Syk activity (Syk [3]): Syk inhibitors | toxic or adverse effect on cells [5]: no toxic or adverse effect | inhibition of Syk (Syk [6]): failed to inhibit Syk at significant levels | IC50 (TrkA [7]): ≤ 100 nM | kinases whose activity was reduced at least by 50% [9]: only one kinase in addition to the Trk kinases

COc1ccc2c(c1)c(/C=C1\C(=O)Nc3ccc(S(=O)(=O)N(C)C)cc31)cn2C [Compound 2a25, (Z)-3-((5-methoxy-1-methyl-1H-indol-3-yl)methylene)-N,N-dimethyl-2-oxindole-5-sulfonamide]
phosphorylation of downstream kinases Akt and Erk1/2 (Akt and Erk1/2): diminished | phosphorylation of TrkA (TrkA [8]): effectively inhibited | cell viability (cellular ATP content) (MG87/TrkB/luc/Elk1 cells): no effect | toxic effects in mice (In vivo toxicology study): no toxic effects | reported effect on Syk activity (Syk [3]): not to suppress Syk activity | solubility (Aqueous solubility; aqueous medium (not further specified)): 3.2 ± 0.1 µg/mL (≈ 7.78 µM) | aqueous solubility (Aqueous solubility): 7.8 ± 0.2 µM (≈ 3.21 µg/mL) | phosphorylation of TrkB (TrkB): effectively inhibited | toxic or adverse effect on cells [5]: no toxic or adverse effect | number of viable neurons (Rat cortical cells): No reduction | IC50 (TrkA [7]): ≤ 100 nM | kinases whose activity was reduced at least by 50% [9]: only TrkA

CN(C)S(=O)(=O)c1ccc2c(c1)/C(=C/c1cn(C)c3ccc(O)cc13)C(=O)N2 [Compound 3a25, (Z)-3-((5-hydroxy-1-methyl-1H-indol-3-yl)methylene)-N,N-dimethyl-2-oxindole-5-sulfonamide]
toxic or adverse effect on cells [5]: no toxic or adverse effect | IC50 (TrkA [7]): ≤ 100 nM | kinases whose activity was reduced at least by 50% [9]: only one kinase in addition to the Trk kinases

CNS(=O)(=O)c1ccc2c(c1)/C(=C/c1cn(C)c3ccc(OC)cc13)C(=O)N2 [Compound 4a22, (Z)-3-((5-methoxy-1-methyl-1H-indol-3-yl)methylene)-N-methyl-2-oxindole-5-sulfonamide]
phosphorylation of downstream kinases Akt and Erk1/2 (Akt and Erk1/2): diminished | phosphorylation of TrkA (TrkA [8]): effectively inhibited | phosphorylation of TrkB (TrkB): effectively inhibited | toxic or adverse effect on cells [5]: no toxic or adverse effect
